We go through 18 compounds from patent publication US20070254882A1, “Sulfamide Derivatives and Pharmaceutical Composition for Upregulation of Lipid Metabolism Comprising Same” (CRYSTAL GENOMICS, INC., priority 2004, published 2007).

The target in experiment [1] is T1, human PPAR α (Homo sapiens, UniProt Q07869).
T1 construct: expressed in transfected cells; host or cells: HepG2 (ATCC HB-8065) or 293T cells (ATCC CRL-1573)
T1 sequence (Q07869 239-466 limits assumed): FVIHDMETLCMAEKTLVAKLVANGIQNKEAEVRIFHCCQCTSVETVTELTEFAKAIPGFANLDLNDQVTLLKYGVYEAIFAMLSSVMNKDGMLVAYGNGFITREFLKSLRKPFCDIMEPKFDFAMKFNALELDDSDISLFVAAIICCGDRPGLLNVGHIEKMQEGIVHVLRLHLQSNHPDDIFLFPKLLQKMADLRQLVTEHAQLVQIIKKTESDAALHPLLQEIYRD
The experiment can be described thus: Exogeneous PPAR α agonist assay (GAL4 DNA binding domain/PPAR α ligand binding domain, luciferase) in 293T cells. Format: cell-based. Also noted: scale not given here. As to conditions: 25 μM compound, 48 hours, luciferase activity increase relative to the control. An outline of the steps: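 HepG2 or 293T cells (2×10^4/well) lipofectamine-transfected 3 hours with PPAR α, UAS firefly-luciferase and Renilla-luciferase constructs. Compounds then added at 25 μM final and incubated 48 hours at 37° C. PPAR α activation measured as dual firefly/Renilla luciferase luminescence.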

In experiment [2] the target is T1, human PPAR α. The experiment can be described thus: Exogeneous PPAR α agonist assay (GAL4 DNA binding domain/PPAR α ligand binding domain, luciferase) in HepG2 cells. As to conditions: 25 μM compound, 48 hours, luciferase activity increase relative to the control. It is filed as cell-based. The protocol: Step 1) Exogeneous PPAR α Agonist Assay
Cross-activation assay of the compounds of Examples 1 to 134 against human PPAR α was carried out using a DNA construct of PPAR α including its ligand binding domain and GAL4 DNA binding domain (Sher et al., Biochemistry 32, 5598-5604, 1993) to analyze whether any of the compounds binds to the ligand binding domain of PPAR α expressed by the construct to affect the PPAR α activity. When the GAL4 DNA binding domainm which is fused with PPAR α ligand binding domain, binds to UAS (upstream activation sequence) of firefly-luciferase, the luciferase is expressed. Therefore, the effect of each of the compounds of Examples on PPAR α activation can be evaluated by analyzing the activation of luciferase.
Specifically, 2×10^4 of HepG2 (ATCC HB-8065) or 293T cells (ATCC CRL-1573) were aliquotted into each well of a 96-well plate and cultured for overnight at 37° C. in a CO2 incubator (culture condition: DMEM, 10% FBS and 1% antibiotics).
The transformation of PPAR α DNA was traced as follows. First, a mixture of the following ingredients in amounts per well; Solution A (Promega) containing 50 ng of full length human PPAR α DNA, 50 ng of firefly-luciferase construct, 5 ng of Renilla-luciferase construct, 1.0 μl of PLUS™ reagent, and 8.3 μl of a serum-free medium containing no antibiotics; was prepared and kept at room temperature for 15 min. Solution B, which contained 0.5 μl of Lipofectamine™ reagent and 9.5 μl of serum-free medium without antibiotics per well, and Solution C, which contained 50 μl of serum-free medium per well), were prepared. Solutions A, B and C were mixed together to prepare lipofectamin-DNA complex, and the mixture was kept at room temperature for 15 min. Single layer of cells on each well of a 96-well plate were washed with serum-free DMEM, 70 μl of lipofectamine-DNA complex prepared above was added thereto, the plate was incubated at 37° C. in a 5% CO2 incubator for 3 hours to transform the cells, and […] of a diluted solution of each of the compounds of Examples 1 to 134 per well was added to each well to a final concentration 25 μM, and incubated at 37° C. in a CO2 incubator for 48 hours. Then, the medium was removed, 50 μl of passive lysis buffer (Promega) was added thereto, and the plate was shook at room temperature for 20 min to lysis cells. 40 μl of Luciferase Assay reagent of Dual Luciferase Kit […] per 20 μl of cell lysis buffer was added to the plate, followed by reacting at 20° C. for 8 seconds, and 40 μl of Stop & Glo reagent (Promega) as a stop solution was added thereto to quench the reaction. The luminescence intensities of F-luciferase and R-luciferase were measured with MicroLumat Plus (Berthord Technology).

Consider `C#CCN(C)S(=O)(=O)N(CC(=O)O)Cc1cccc(OCc2nc(-c3ccc(C(F)(F)F)cc3)oc2C)c1` [Example 10, [N—(N-methyl-N-propargylamino)sulfonyl-N-[3-[[2-(4-trifluoromethylphenyl)-5-methyloxazol-4-yl]methoxy]benzyl]amino]acetic acid], for which the “Activity at 25 μM Step 1 293T cell” value on human PPAR α [1] is recorded as 3. In addition, on human PPAR α [2], the “Activity at 25 μM Step 1 HepG2 cell” value stood at 45.
Taken in the same sequence, the figures for `Cc1oc(-c2ccc(C(F)(F)F)cc2)nc1COc1cccc(CN(CC(=O)O)S(=O)(=O)N2CCCCC2)c1` [Example 11, [N-(piperidinyl)sulfonyl-N-[3-[[2-(4-trifluoromethylphenyl)-5-methyloxazol-4-yl]methoxy]benzyl]amino]acetic acid] were 4 and 44.
As for `CCN(c1cccc(C)c1)S(=O)(=O)N(CC(=O)O)Cc1cccc(OCc2nc(-c3ccc(C(F)(F)F)cc3)oc2C)c1` [Example 21, [N—(N-ethyl-N-m-tolylamino)sulfonyl-N-[3-[[2-(4-trifluoromethylphenyl)-5-methyloxazol-4-yl]methoxy]benzyl]amino]acetic acid], the “Activity at 25 μM Step 1 293T cell” value at human PPAR α [1] amounted to 5. Also, the “Activity at 25 μM Step 1 HepG2 cell” value at human PPAR α [2] turned out to be 40.
Take `COc1ccc(N(C)S(=O)(=O)N(CC(=O)O)Cc2cccc(OCc3nc(-c4ccc(C(F)(F)F)cc4)oc3C)c2)cc1` [Example 22]: the “Activity at 25 μM Step 1 293T cell” value at human PPAR α [1] turned out to be 4. For the same compound, the “Activity at 25 μM Step 1 HepG2 cell” value on human PPAR α [2] was found to be 49.
On the same counts, the results for `Cc1oc(-c2ccc(C(F)(F)F)cc2)nc1COc1cccc(CN(CC(=O)O)S(=O)(=O)N(C)c2cccc(F)c2)c1` [Example 23, [N—[N-(3-fluorophenyl)-N-methylamino]sulfonyl-N-[3-[[2-(4-trifluoromethylphenyl)-5-methyloxazol-4-yl]methoxy]benzyl]amino]acetic acid] are 5 and 34.
Take `CCN(CC)S(=O)(=O)N(CC(=O)O)Cc1cccc(OCCc2nc(-c3ccc(C)cc3)oc2C)c1` [Example 63, [N—(N,N-diethylamino)sulfonyl-N-[3-[2-[2-(4-methylphenyl)-5-methyloxazol-4-yl]ethoxy]benzyl]amino]acetic acid]: the “Activity at 25 μM Step 1 293T cell” value at human PPAR α [1] turned out to be 3. Moreover, at human PPAR α [2], the “Activity at 25 μM Step 1 HepG2 cell” value was found to be 33.
Take `Cc1ccc(-c2nc(CCOc3cccc(CN(CC(=O)O)S(=O)(=O)N(C)C(C)C)c3)c(C)o2)cc1` [Example 64, [N—(N-isopropyl-N-methylamino)sulfonyl-N-[3-[2-[2-(4-methylphenyl)-5-methyloxazol-4-yl]ethoxy]benzyl]amino]acetic acid]: the “Activity at 25 μM Step 1 293T cell” value on human PPAR α [1] is on record as 2. In addition, the “Activity at 25 μM Step 1 HepG2 cell” value on human PPAR α [2] is 30.
In the case of `CCN(CC)S(=O)(=O)N(CC(=O)O)Cc1cccc(OCCc2nc(-c3ccc(C(F)(F)F)cc3)oc2C)c1` [Example 67, [N—(N,N-diethylamino)sulfonyl-N-[3-[2-[2-(4-trifluoromethylphenyl)-5-methyloxazol-4-yl]ethoxy]benzyl]amino]acetic acid], the “Activity at 25 μM Step 1 293T cell” value at human PPAR α [1] stood at 2. For the same compound, on human PPAR α [2], the “Activity at 25 μM Step 1 HepG2 cell” value was found to be 50.
On the same counts, the results for `Cc1oc(-c2ccc(C(F)(F)F)cc2)nc1CCOc1cccc(CN(CC(=O)O)S(=O)(=O)N(C)C(C)C)c1` [Example 68, [N—(N-isopropyl-N-methylanmo)sulfonyl-N-[3-[2-[2-(4-trifluoromethylphenyl)-5-methyloxazol-4-yl]ethoxy]benzyl]amino]acetic acid] are 2 and 11.
Taken in the same sequence, the figures for `C=CCN(C)S(=O)(=O)N(CC(=O)O)Cc1cccc(OCCc2nc(-c3ccc(C(F)(F)F)cc3)oc2C)c1` [Example 69, [N—(N-allyl-N-methylamino)sulfonyl-N-[3-[2-[2-(4-trifluoromethylphenyl)-5-methyloxazol-4-yl]ethoxy]benzyl]amino]acetic acid] were 2 and 40.
As for `C#CCN(C)S(=O)(=O)N(CC(=O)O)Cc1cccc(OCCc2nc(-c3ccc(C(F)(F)F)cc3)oc2C)c1` [Example 70, [N—(N-methyl-N-propargylamino)sulfonyl-N-[3-[2-[2-(4-trifluoromethylphenyl)-5-methyloxazol-4-yl]ethoxy]benzyl]amino]acetic acid], the “Activity at 25 μM Step 1 293T cell” value at human PPAR α [1] was determined as 3. At human PPAR α [2], the “Activity at 25 μM Step 1 HepG2 cell” value was 34.
Consider `Cc1oc(-c2ccc(C(F)(F)F)cc2)nc1CCOc1cccc(CN(CC(=O)O)S(=O)(=O)N2CCCCC2)c1` [Example 71, [N-(piperidinyl)sulfonyl-N-[3-[2-[2-(4-trifluoromethylphenyl)-5-methyloxazol-4-yl]ethoxy]benzyl]amino]acetic acid], for which the “Activity at 25 μM Step 1 293T cell” value at human PPAR α [1] was 2. Further, at human PPAR α [2], the “Activity at 25 μM Step 1 HepG2 cell” value is 44.
On the same counts, the results for `CCN(c1cccc(C)c1)S(=O)(=O)N(CC(=O)O)Cc1cccc(OCCc2nc(-c3ccc(C(F)(F)F)cc3)oc2C)c1` [Example 80, [N—(N-ethyl-N-m-tolylamino)sulfonyl-N-[3-[2-[2-(4-trifluoromethylphenyl)-5-methyloxazol-4-yl]ethoxy]benzyl]amino]acetic acid] are 5 and 30.
With `Cc1oc(-c2ccc(C(F)(F)F)cc2)nc1CCOc1cccc(CN(CC(=O)O)S(=O)(=O)N(C)c2cccc(F)c2)c1` [Example 82, [N—[N-(3-fluorophenyl)-N-methylamino]sulfonyl-N-[3-[2-[2-(4-trifluoromethylphenyl)-5-methyloxazol-4-yl]ethoxy]benzyl]amino]acetic acid], the “Activity at 25 μM Step 1 293T cell” value on human PPAR α [1] was 2. Further, the “Activity at 25 μM Step 1 HepG2 cell” value at human PPAR α [2] is on record as 26.
As to `CCN(CC)S(=O)(=O)N(CC(=O)O)Cc1ccc(OCCc2nc(-c3ccc(C)cc3)oc2C)cc1` [Example 101, [N—(N,N-diethylamino)sulfonyl-N-[4-[2-[2-(4-methylphenyl)-5-methyloxazol-4-yl]ethoxy]benzyl]amino]acetic acid], the “Activity at 25 μM Step 1 293T cell” value on human PPAR α [1] stood at 4. Also, the “Activity at 25 μM Step 1 HepG2 cell” value at human PPAR α [2] is 45.
Turning to `Cc1ccc(-c2nc(CCOc3ccc(CN(CC(=O)O)S(=O)(=O)N(C)C(C)C)cc3)c(C)o2)cc1` [Example 102, [N—(N-isopropyl-N-methylamino)sulfonyl-N-[4-[2-[2-(4-methylphenyl)-5-methyloxazol-4-yl]ethoxy]benzyl]amino]acetic acid], the “Activity at 25 μM Step 1 293T cell” value at human PPAR α [1] came out at 4. The “Activity at 25 μM Step 1 HepG2 cell” value on human PPAR α [2] is 46.
On the same counts, the results for `CCN(c1cccc(C)c1)S(=O)(=O)N(CC(=O)O)Cc1ccc(OCCc2nc(-c3ccc(C)cc3)oc2C)cc1` [Example 111, [N—(N-ethyl-N-m-tolylamino)sulfonyl-N-[4-[2-[2-(4-methylphenyl)-5-methyloxazol-4-yl]ethoxy]benzyl]amino]acetic acid] are 5 and 25.
On the same counts, the results for `Cc1ccc(-c2nc(CCOc3ccc(CN(CC(=O)O)S(=O)(=O)N(C)c4cccc(F)c4)cc3)c(C)o2)cc1` [Example 113, [N—[N-(3-fluorophenyl)-N-methylamino]sulfonyl-N-[4-[2-[2-(4-methylphenyl)-5-methyloxazol-4-yl]ethoxy]benzyl]amino]acetic acid] are 4 and 29.
